Reference: PMC7112612 (The Journal of Infection, 2013)
In brackets after ≈: the same amount, converted by molar mass. Several values for one entry are separate records, joined by “and”; a condition that tells them apart may be missing. Identical values can stand only once. Entries after “also recorded” stand apart in the source; their conditions may differ. Counter-ions that a name gives are not always drawn. Like-named read-outs stand apart in the source and are kept apart here.

Legend:
[1] = test system: influenza A/WSN/1933 (H1N1) virus; assay: microbe, parasite or virus in culture; type: cell-based; settings: for EC50: Influenza A virus, H1N1|WSN, MDCK
MDCK cells = settings: dog
[2] = in vivo, cited from earlier work
MERS-CoV [3] = assay: microbe, parasite or virus in culture; type: cell-based
MERS-CoV [4] = type: cell-based
MERS-CoV [5] = type: cell-based; remark: listed apart in the source
SARS-CoV = settings: mouse, in vivo; cited from earlier work
in vitro = settings: African green monkey
uninfected MDCK cells = settings: cited from earlier work
[6] = Middle East respiratory syndrome-related coronavirus, Vero

Molecule	Result of chemical library screening [1]	EC50 [1]	TC50 (MDCK cells)	Selectivity index [1]	Serum concentration ([2]; po)	anti-MERS-CoV activity at the tested concentrations (in words) (MERS-CoV [4])	further results
NC12CC3CC(CC(C3)C1)C2 [Amantadine]	not identified						
CC[C@H]1CN2CCc3cc(OC)c(OC)cc3[C@@H]2C[C@@H]1C[C@H]1NCCc2cc(OC)c(OC)cc21 [Emetine]	primary hits with protective results	14.7 µM	17.00 µM				
C[C@]12CC[C@@H]3c4ccc(O)cc4CC[C@H]3[C@@H]1CC[C@@H]2O [Estradiol]	primary hits with protective results	20 µM	75.00 µM	3.00			
O=C(O)c1ccccc1Nc1cccc(C(F)(F)F)c1 [Flufenamic acid]	primary hits with protective results	6.3 µM	79.16 µM	12.60	6–20 [200 mg] μg/ml		
Cc1ccc(Cl)c(Nc2ccccc2C(=O)O)c1Cl [Meclofenamate sodium]	primary hits with protective results	45 µM	100.00 µM	2.00	4.8 [100 mg tds] μg/ml		
Cc1cccc(Nc2ccccc2C(=O)O)c1C [Mefenamic acid]	primary hits with protective results	50 µM	200.00 µM	4.00	10 [1 g] μg/ml		
Sc1ncnc2nc[nH]c12 [Mercaptopurine]	primary hits with protective results	26.5 µM	100.00 µM	4.00	0.09 [50 mg/m^2] μg/ml		
COc1c(C)c2c(c(O)c1C/C=C(\C)CCC(=O)OCCN1CCOCC1)C(=O)OC2 [Mycophenolate mofetil]							average plasma elimination half-life ([2]; iv, 1500 mg): 16.6 h; average plasma elimination half-life ([2]; po, 1000 mg): 17.9 h
COc1c(C)c2c(c(O)c1C/C=C(\C)CCC(=O)O)C(=O)OC2 [Mycophenolic acid]	primary hits with protective results		170.00 µM			showed anti-MERS-CoV activity	EC99 (MERS-CoV [3]): 4.86 ± 0.57 µg/mL; Selectivity index (MERS-CoV [3]): >195.12; reduction in viral load (MERS-CoV [3]): > 2 log; EC50 (MERS-CoV [3]; [6]): 0.17 ± 0.03 µg/mL (≈ 0.531 µM); EC90 (MERS-CoV [3]; [6]): 2.61 ± 0.34 µg/mL (≈ 8.15 µM); reduction in viral load (MERS-CoV [3]; at 16 μg/ml): ~4 log; concentration at which CPE was completely absent (MERS-CoV [4]): ≥ 0.063 µg/mL; concentration achieving 100% plaque reduction (MERS-CoV [5]): 6.4 µg/mL; efficacy against SARS-CoV in an animal model (in words) (SARS-CoV): ineffective; CC50 (in vitro): > 32 µg/mL
CCc1nc(N)nc(N)c1-c1ccc(Cl)cc1 [Pyrimethamine]	primary hits with protective results	3.1 µM	5.40 µM	1.80	0.55 [1500/75 mg of sulfadoxine/pyrimethamine] μg/ml		
NC(=O)c1ncn([C@@H]2O[C@H](CO)[C@@H](O)[C@H]2O)n1 [Ribavirin]	primary hits with protective results	20 µM	168.00 µM	8.00	2.2 [4 weeks of 600 mg bd] μg/ml	showed anti-MERS-CoV activity	EC99 (MERS-CoV [3]): 183.17 ± 11.97 µg/mL; Selectivity index (MERS-CoV [3]): >152.98; reduction in viral load (MERS-CoV [3]): > 2 log; EC50 (MERS-CoV [3]; [6]): 9.99 ± 2.97 µg/mL (≈ 40.9 µM); EC90 (MERS-CoV [3]; [6]): 107 ± 11.2 µg/mL (≈ 438 µM); concentration achieving 100% plaque reduction (MERS-CoV [5]): 400 µg/mL; CC50 (in vitro): > 1600 µg/mL; peak concentration ([2]; iv): approximately 24 μg/ml; concentration inhibiting replication of uninfected MDCK cells (uninfected MDCK cells): ≥ 10000 ng/mL
Cc1c(Cl)cccc1Nc1ccccc1C(=O)O [Tolfenamic acid]	primary hits with protective results	7.94 µM	64.00 µM	8.00	4.1 [300 mg] μg/ml		
Cc1cccc(C)c1OCC(=O)N[C@@H](Cc1ccccc1)[C@@H](O)C[C@H](Cc1ccccc1)NC(=O)[C@H](C(C)C)N1CCCNC1=O [lopinavir]						suboptimal EC50; also recorded: not found to be active	
Cc1c(O)cccc1C(=O)N[C@@H](CSc1ccccc1)[C@H](O)CN1C[C@H]2CCCC[C@H]2C[C@H]1C(=O)NC(C)(C)C [nelfinavir mesylate hydrate]						suboptimal EC50	
Imukin (protein, UniProt P01579 24-161, looked up) Interferon gamma: QDPYVKEAENLKKYFNAGHSDVADNGTLFLGILKNWKEESDRKIMQSQIVSFYFKLFKNFKDDQSIQKSVETIKEDMNVKFFNSNKKKRDDFEKLTNYSVTDLNVQRKAIHELIQVMAELSPAAKTGKRKRSQMLFRG						suboptimal EC50	
Betaferon (protein, UniProt P01574 22-187, looked up, variant C17S, lacks N-terminal Met1) Interferon beta: MSYNLLGFLQRSSNFQSQKLLWQLNGRLEYCLKDRMNFDIPEEIKQLQQFQKEDAALTIYEMLQNIFAIFRQDSSSTGWNETIVENLLANVYHQINHLKTVLEEKLEKEDFTRGKLMSSLHLKRYYGRILHYLKAKEYSHCAWTIVRVEILRNFYFINRLTGYLRN						showed anti-MERS-CoV activity	EC50 (MERS-CoV [3]): 17.64 IU/ml and 17.64 ± 1.09 IU/ml; EC90 (MERS-CoV [3]): 93.31 ± 10.07 IU/ml; EC99 (MERS-CoV [3]): 135.70 ± 15.96 IU/ml; maximum percentage of plaque reduction (MERS-CoV [5]): 66.6%; plaque reduction (MERS-CoV [5]): 40–50%; CC50 (Vero cells): 3125 IU/ml; mean peak serum concentration [2]: 40 IU/ml
